Measured values: patent publication US11046672B2, “Indolinones compounds and their use in the treatment of fibrotic diseases” (RESPIVERT LIMITED, priority 2015, dated 2021)
“And” between values parts separate entries of the source, which are not always exact repeats. Identical values can stand only once. Like-named read-outs stand apart in the source and are kept apart here.

Columns and labels:
PDGFRβ [1] = target: T1, PDGFRβ (Homo sapiens (Human), UniProt P09619); experiment: PDGF-BB induced phosphorylation of PDGFRβ in fibroblasts (MRC5 cells, HTRF); format: cell-based; settings: MRC5 cells; n = 1 unless otherwise indicated; read-out: PDGFBB-induced PDGFRβ phosphorylation in MRC5 cells (IC50)
T1 sequence (P09619 33-1106): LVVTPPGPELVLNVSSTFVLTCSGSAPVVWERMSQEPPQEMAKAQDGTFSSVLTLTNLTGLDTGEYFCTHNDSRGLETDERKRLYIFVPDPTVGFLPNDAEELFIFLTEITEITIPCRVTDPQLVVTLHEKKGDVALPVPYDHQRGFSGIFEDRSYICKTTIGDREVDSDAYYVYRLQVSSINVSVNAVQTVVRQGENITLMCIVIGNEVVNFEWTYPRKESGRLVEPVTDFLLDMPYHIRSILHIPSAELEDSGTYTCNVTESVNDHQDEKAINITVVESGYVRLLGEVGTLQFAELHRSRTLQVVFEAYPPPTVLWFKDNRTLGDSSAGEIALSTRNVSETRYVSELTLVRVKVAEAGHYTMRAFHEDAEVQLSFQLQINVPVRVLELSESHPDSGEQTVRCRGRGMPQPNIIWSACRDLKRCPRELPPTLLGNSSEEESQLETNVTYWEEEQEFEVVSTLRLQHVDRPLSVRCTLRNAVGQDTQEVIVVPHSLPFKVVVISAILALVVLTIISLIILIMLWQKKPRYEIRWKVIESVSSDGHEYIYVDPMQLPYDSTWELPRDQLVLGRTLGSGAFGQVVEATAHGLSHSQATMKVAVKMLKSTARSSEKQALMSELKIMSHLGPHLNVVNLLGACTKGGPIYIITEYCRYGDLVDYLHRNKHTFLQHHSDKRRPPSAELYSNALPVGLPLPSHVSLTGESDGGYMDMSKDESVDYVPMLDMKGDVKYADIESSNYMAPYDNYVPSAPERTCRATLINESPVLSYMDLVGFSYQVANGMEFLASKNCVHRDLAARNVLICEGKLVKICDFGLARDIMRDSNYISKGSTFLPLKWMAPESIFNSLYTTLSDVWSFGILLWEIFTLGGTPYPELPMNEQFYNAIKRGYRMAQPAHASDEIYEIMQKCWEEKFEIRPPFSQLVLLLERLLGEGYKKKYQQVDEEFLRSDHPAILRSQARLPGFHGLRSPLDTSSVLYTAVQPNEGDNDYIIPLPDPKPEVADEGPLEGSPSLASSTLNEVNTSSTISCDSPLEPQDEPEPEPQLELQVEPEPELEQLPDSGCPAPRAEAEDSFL

PDGFRβ [2] = target: T1, PDGFRβ; experiment: Duration of action (washout) against PDGF-BB induced phosphorylation of PDGFRβ in human fetal lung fibroblast cells; format: cell-based; settings: MRC-5 cells
PAMPA permeability assay = format: in vitro ADME; settings: for % Recovery: donor and acceptor compartments
[3] = Pharmacokinetic measurements in rats (intravenous and intra-tracheal dosing); format: in vivo; settings: rat; for concentration at 0.1 h / concentration at 1.5 h / concentration at 24 h: lung, read-out: lung concentration (nM) at time (h); for MRT / clearance / Vd / half-life: plasma; for clearance: i.v. dosing (i.v. dose 0.1-0.5 per compound); for Vd: read-out: Vss; for half-life: read-out: t½ (converted); for i.t. BAV (%): i.t. dosing (i.t. dose 0.1-0.5 per compound)
PDGFRβ [4] = target: T1, PDGFRβ; settings: read-out: Ki PDGFRβ; mean, n = 2 unless otherwise indicated
MRC5 cells = experiment: Cell viability assay in MRC5 cells (MTT)
[5] = male, CD, iv, i.v. dosing, 0.1 h
[6] = male, CD, iv, i.v. dosing, 1.5 h
[7] = male, CD, iv, i.v. dosing, 24 h
[8] = male, CD, other: intra-tracheal, i.t. dosing, 0.1 h
[9] = male, CD, other: intra-tracheal, i.t. dosing, 1.5 h
[10] = male, CD, other: intra-tracheal, i.t. dosing, 24 h
[11] = male, CD, lung/plasma, iv, i.v. dosing, 0.1 h, read-out: lung/plasma ratio at time(h)
[12] = male, CD, lung/plasma, iv, i.v. dosing, 1.5 h, read-out: lung/plasma ratio at time(h)
[13] = male, CD, lung/plasma, other: intra-tracheal, i.t. dosing, 0.1 h, read-out: lung/plasma conc ratio at time(h)
[14] = male, CD, lung/plasma, other: intra-tracheal, i.t. dosing, 1.5 h, read-out: lung/plasma conc ratio at time(h)

SMILES	IC50 (PDGFRβ [1]) [nM]	% Recovery (PAMPA permeability assay; PAMPA)	concentration at 0.1 h [3, 5] [nM]	concentration at 1.5 h [3, 6] [nM]	concentration at 24 h [3, 7] [nM]	concentration at 0.1 h [3, 8] [nM]	concentration at 1.5 h [3, 9] [nM]	concentration at 24 h [3, 10] [nM]	Kp at 0.1 h [3, 11]	Kp at 1.5 h [3, 12]	Kp at 0.1 h [3, 13]	Kp at 1.5 h [3, 14]	MRT ([3]; male, CD, iv, i.v. dosing) [h]	clearance ([3]; male, CD, iv) [mL/min/kg]	Vd ([3]; male, CD, iv, i.v. dosing) [L/kg]	half-life ([3]; male, CD, iv, i.v. dosing) [h]	Lung conc i.t./i.v. Ratio at time (h) ([3]; 0.1 h)	Lung conc i.t./i.v. Ratio at time (h) ([3]; 1.5 h)	Lung conc i.t./i.v. Ratio at time (h) ([3]; 24 h)	i.t. BAV (%) [3] [%]	further results
COC(=O)c1ccc2c(c1)NC(=O)/C2=C(\Nc1ccc(C(=O)NOCCN(C)C)cc1)c1ccccc1 [Example 3, (Z)-Methyl 3-(((4-((2-(dimethylamino)ethoxy)carbamoyl)phenyl)amino)(phenyl)methylene)-2-oxoindoline-6-carboxylate]	7.14	76% and 55.3%	719	325	28	6690	1680	247	126	315	176	1430	3	285	51	3.1	9.3	5.2	8.8	325	% phos: percentage phosphorylation after wash-out relative to maximal phosphorylation (100%) (PDGFRβ [2]; after wash-out, rhuPDGF-BB, experiments in Groups 1-4): 34.6%; Papp at 5 h, 10 μM (PAMPA permeability assay; PAMPA, pH 7, pH 7, 10 μM, 5 hr): 0.0384 ×10⁻⁶ cm/s; Mean Papp (PAMPA permeability assay; pH 7, 10 μM, 5 hr): 0.023 10^−6 cm s^−1; Kp at 24 h ([3]; male, CD, lung/plasma, other: intra-tracheal, i.t. dosing, 24 h, read-out: lung/plasma conc ratio at time(h)): 503; BAL % administered dose at time (h) ([3]; i.t. dosing, 0.1 h): 3%; BAL % administered dose at time (h) ([3]; i.t. dosing, 1.5 h): 0.3%; BAL % administered dose at time (h) ([3]; i.t. dosing, 24 h): 0.1%; BAL % administered dose at time (h) ([3]; i.v. dosing, 0.1 h): 0.03%; BAL % administered dose at time (h) ([3]; i.v. dosing, 1.5 h): 0.02%; BAL % administered dose at time (h) ([3]; i.v. dosing, 24 h): BLQ; Ki (PDGFRβ [4]): 11.4 nM; Cell viability at 100 nM (%) (MRC5 cells): 106%; Cell viability at 300 nM (%) (MRC5 cells): 85.4%; Cell viability at 1000 nM (%) (MRC5 cells): 67.2%
COC(=O)c1ccc2c(c1)NC(=O)/C2=C(\Nc1ccc(C(=O)NOCCN2CCN(C)CC2)cc1)c1ccccc1 [Example 4, (Z)-Methyl 3-(((4-((2-(4-methylpiperazin-1-yl)ethoxy)carbamoyl)phenyl)amino)(phenyl)methylene)-2-oxoindoline-6-carboxylate]	15.2	44.9% and 75.6%	419	266	12	5540	1540	218	77	285	279	1320	2.4	462	39	2.2	13.2	5.8	18.2	67	Duration of action as inhibitors of PDGFRβ compared with nintedanib (PDGFRβ [2]; wash-out): longer duration of action; BAL % administered dose at time (h) ([3]; i.t. dosing, 0.1 h): 3%; BAL % administered dose at time (h) ([3]; i.t. dosing, 1.5 h): 0.3%; BAL % administered dose at time (h) ([3]; i.t. dosing, 24 h): 0.1%; BAL % administered dose at time (h) ([3]; i.v. dosing, 0.1 h): 0.01%; BAL % administered dose at time (h) ([3]; i.v. dosing, 1.5 h): BLQ; BAL % administered dose at time (h) ([3]; i.v. dosing, 24 h): BLQ; lung/plasma ratio at time(h) ([3]; i.v. dosing, 24 h): BLQ; Ki (PDGFRβ [4]): 9.66 nM; Cell viability at 100 nM (%) (MRC5 cells): 99.2%; Cell viability at 300 nM (%) (MRC5 cells): 94.8%; Cell viability at 1000 nM (%) (MRC5 cells): 88.8%
